Source: US8383626B2, “Nitric oxide donors for inducing neurogenesis” (Henry Ford Health System, priority 1999, dated 2013)

Test system: neuronal progenitor cells in the SVZ and the dentate gyrus
Experiment: Proliferation of neuronal progenitor cells (BrdU immunoreactive cell density) in non ischemic adult rats
Assay type: in vivo, rat
Procedure: Two experiments were performed. In the first experiment, the effects of NO on the proliferation of neuronal progenitor cells in the SVZ and the dentate gyrus of non ischemic adult rats were examined. In the second experiment, the effects of NO on the proliferation of neuronal progenitor cells in the SVZ and in the dentate gyrus of ischemic adult rats were examined.
Male Wistar rats (n=28) weighing 300-350 g were anesthetized with halothane (1-3.5% in a mixture of 70% N2O and 30% O2) using a face mask. The rectal temperature was maintained at 37±1° C. throughout the surgical procedure using a feedback regulated water heating system. The right femoral artery and vein were cannulated with a PE-50 catheter for continuous monitoring of blood pressure and measurement of blood gases (pH, pO2, pCO2) and for drug administration, respectively. DETANONOate was intravenously and intraperitoneally injected to rats.
DETANONO treatment: Rats were randomly divided into four groups. Group 1 (single Rx), rats were intravenously injected with four consecutive bolus doses of DETANONO (0.1 mg/kg each) every fifteen minutes (total dose of 0.4 mg/kg). Group 2 (two Rx group), rats were intravenously injected with four consecutive bolus doses of DETANONO (0.1 mg/kg each) every fifteen minutes (total dose 0.4 mg/kg) and rats received a second treatment at 24 hours later. Group 3 (seven Rx group), rats received four consecutive intravenous bolus doses of DETANONO (0.1 mg/kg each) every fifteen minutes on the first experimental day and rats were intraperitoneally injected with a bolus dose of DETANONO (0.4 mg/kg) daily for an additional six consecutive days. Group 4 (control), rats received saline only (single dose).
Rats received an intraperitoneal injection of BrdU (50 mg/kg) on the first day of DETANONO treatment and daily intraperitoneal injections of BrdU for fourteen consecutive days. To determine whether the proliferation and the differentiation of cells in the SVZ and dentate gyrus of adult rats is affected by NO, rats were sacrificed at fourteen days (n=3-5 per group) and 42 days (n=3-5 per group) after first dose of DETANONO treatment, respectively. Rats were transcardially perfused with 4% paraformaldehyde in 100 mM phosphate buffer, pH 7.4. Brains were removed and fixed in 4% formaldehyde.
For BrdU immunostaining, DNA was first denatured by incubating brain sections (6 μm) in 50% formamide 2×SSC at 65° C. for 2 hours and then in 2N HCl at 37° C. for 30 minutes. Sections were then rinsed with Tris buffer and treated with 1% of H2O2 to block endogenous peroxidase. Sections were incubated with a primary antibody to BrdU (1:100) at room temperature for one hour and then incubated with biotinylated secondary antibody (1:200, Vector, Burlingame, Calif.) for one hour. Reaction product was detected using 3′3′-diaminobenzidine-tetrahydrochloride (DAB, Sigma).
BrdU immunostained sections were digitized under 40× objectively (Olympus BX40) via the MCID computer imaging analysis system (Imaging Research, St. Catharines, Canada). BrdU immunoreactive nuclei were counted on a computer monitor to improve visualization and in one focal plane to avoid over-sampling. Structures were sampled either by selecting predetermined areas on each section (RMS and OB) or by analyzing entire structures on each section (dentate gyrus and SVZ).
Every 40th coronal section was selected from each rat for a total of seven sections between AP+10.6 mm, genu corpus callosum, and AP+8.74 mm-anterior commissure crossing (Paxinos and Watson, 1986). BrdU immunoreactive-positive nuclei were counted in the lateral ventricle wall. All BrdU immunoreactive-positive nuclei in these areas are presented as the number of the BrdU immunoreactive cells/mm^2. Density for the seven sections was averaged to obtain a mean density value for each animal.
Every 20th section was selected from each rat for a total of six sections from the sagittal series of the OB/frontal cortex. […]

NCCN(CCN)/[N+]([O-])=N/O [DETANONO, DETANONOate]
Density of newborn cells, Olfactory bulb (ONCE, 4 weeks after last BrdU injection (42 d), Contralateral): 80 ± 12.3 cells per mm^2
Density of newborn cells, Olfactory bulb (ONCE, 4 weeks after last BrdU injection (42 d), Ipsilateral): 75.65 ± 10.85 cells per mm^2
Density of newborn cells, Rostral migratory stream (ONCE, 4 weeks after last BrdU injection, Left side): 26.25 ± 6.9 cells per mm^2
Density of newborn cells, Rostral migratory stream (ONCE, 4 weeks after last BrdU injection, Right side): 22.5 ± 5.95 cells per mm^2
Density of newborn cells, Olfactory bulb (ONCE, 1 day after last BrdU injection (14 d), Contralateral): 39.75 ± 6.2 cells per mm^2
Density of newborn cells, Olfactory bulb (ONCE, 1 day after last BrdU injection (14 d), Ipsilateral): 41.4 ± 5.55 cells per mm^2
Density of newborn cells, Rostral migratory stream (ONCE, 1 day after last BrdU injection (14 d), Left side): 998.55 ± 59.7 cells per mm^2
Density of newborn cells, Rostral migratory stream (ONCE, 1 day after last BrdU injection (14 d), Right side): 950.25 ± 99.55 cells per mm^2
Density of newborn cells, Olfactory bulb (TWICE, 4 weeks after last BrdU injection (42 d), Contralateral): 98.4 ± 19.95 cells per mm^2
Density of newborn cells, Olfactory bulb (TWICE, 4 weeks after last BrdU injection (42 d), Ipsilateral): 85 ± 15.95 cells per mm^2
Density of newborn cells, Rostral migratory stream (TWICE, 4 weeks after last BrdU injection, Left side): 37.8 ± 5.15 cells per mm^2
Density of newborn cells, Rostral migratory stream (TWICE, 4 weeks after last BrdU injection, Right side): 32.9 ± 8.15 cells per mm^2
Density of newborn cells, Olfactory bulb (TWICE, 1 day after last BrdU injection (14 d), Contralateral): 99.6 ± 10.5 cells per mm^2
Density of newborn cells, Olfactory bulb (TWICE, 1 day after last BrdU injection (14 d), Ipsilateral): 91.65 ± 12.35 cells per mm^2
Density of newborn cells, Rostral migratory stream (TWICE, 1 day after last BrdU injection (14 d), Left side): 1070.85 ± 160.1 cells per mm^2
Density of newborn cells, Rostral migratory stream (TWICE, 1 day after last BrdU injection (14 d), Right side): 991 ± 98.25 cells per mm^2
BrdU immunoreactive cells in OB (non ischemic rats, 42 days after a single set, fourteen and 42 days after two and seven sets, vs control): significant increases
number of BrdU immunoreactive cells in the SVZ, seven doses vs one and two doses (non ischemic rats, fourteen days after treatment): highest number of BrdU immunoreactive cells
numbers of BrdU immunoreactive cells in the RMS (non ischemic rats, fourteen days and 42 days after treatment): did not significantly increase
percentage of distribution of BrdU immunoreactive cells in the dentate gyrus (non ischemic rats, fourteen days and 42 days, vs control): significantly decreases percentage of BrdU immunoreactive cells in subgranular zone and significantly increases in the granule layers
numbers of BrdU immunoreactive cells in the dentate gyrus (non ischemic rats, single treatment, fourteen days and 42 days): did not significantly increase
numbers of BrdU immunoreactive cells in the dentate gyrus (non ischemic rats, two and seven sets, fourteen days and 42 days, vs control): significant (p<0.01) increases
numbers of BrdU immunoreactive cells in the SVZ (non ischemic rats, vs saline at fourteen days and 42 days after treatment): significant (p<0.05) increase
Density of newborn cells, Olfactory bulb (× 7 TIMES, 4 weeks after last BrdU injection (42 d), Contralateral): 100.65 ± 19 cells per mm^2
Density of newborn cells, Olfactory bulb (× 7 TIMES, 4 weeks after last BrdU injection (42 d), Ipsilateral): 84.4 ± 7.1 cells per mm^2
Density of newborn cells, Rostral migratory stream (× 7 TIMES, 4 weeks after last BrdU injection, Left side): 47.5 ± 15.6 cells per mm^2
Density of newborn cells, Rostral migratory stream (× 7 TIMES, 4 weeks after last BrdU injection, Right side): 45 ± 11.35 cells per mm^2
Density of newborn cells, Olfactory bulb (× 7 TIMES, 1 day after last BrdU injection (14 d), Contralateral): 116.55 ± 16.45 cells per mm^2
Density of newborn cells, Olfactory bulb (× 7 TIMES, 1 day after last BrdU injection (14 d), Ipsilateral): 106.25 ± 17.7 cells per mm^2
Density of newborn cells, Rostral migratory stream (× 7 TIMES, 1 day after last BrdU injection (14 d), Left side): 1312.5 ± 265 cells per mm^2
Density of newborn cells, Rostral migratory stream (× 7 TIMES, 1 day after last BrdU injection (14 d), Right side): 1169.4 ± 218.85 cells per mm^2
